Test results from patent publication US20170066795A1, “SOLID PRODRUG FORMS OF 2'-CHLORO-2'-METHYL URIDINE FOR HCV” (IDENIX PHARMACEUTICALS LLC, priority 2014, published 2017).
Where two headings read alike, the source gives them in different places.

Key:
Genotype 1 HCV = assay: Example 3 Part I: Compound I QD x 7 days in treatment-naïve Genotype 1 HCV-infected subjects, viral load (HCV RNA); format: in vivo; settings: 300 mg/day for 7 days
Experimental: (§1) This part was a randomized, double-blind, placebo-controlled, parallel group study in treatment-naïve, Genotype 1 HCV-infected subjects. Thirty (30) subjects were randomized across the treatment arms specified below.
(§2) Dosing, sampling, and analyses for Parts I and II were made according to Tables A and B.
(§3) Compound I was provided as size 0, white, hard hydroxypropyl methylcellulose (HPMC) capsules for oral administration at 5 mg, 25 mg and 50 mg strengths. The same powder blend containing 33.3% weight/weight (w/w) Compound I, a diluent, and a disintegrant is used to fill the capsules for all dose strengths. Matching placebo capsules will also be provided. Storage conditions will be provided on the study drug container label.
Dosing occurred between approximately 08:00 AM and 10:00 AM on each dosing day. Water was permitted ad libitum except for 1 hour before and after dosing. Dosing was immediately followed by administration of 240 mL (8 oz.) of water. Meals and beverages served within 24 hours prior to and post dosing were xanthine-free and caffeine-free. Grapefruit and grapefruit juice were not allowed within 7 days before reporting to the clinic on Day −1 and through the end of the study.

HCV = assay: Example 3 Parts I and II: antiviral activity across genotypes; format: in vivo; settings: HCV-infected subjects, 50-300 mg QD x 7 days
From the text: as §1
This part were a randomized, open-label, parallel group study in treatment-naïve, Genotype 2, 3, 4, 5 and 6 HCV-infected subjects. Thirty (30) subjects were randomized across the treatment arms specified below.
as §2

[1] = Example 4 Group A: plasma pharmacokinetics in healthy volunteers (LC/MS/MS); settings: human, in vivo; for AUC(0-inf) / Cmax / half-life: mean ± SD; for AUC(0-inf): read-out: AUC∞ of Compound I; for Cmax: read-out: Cmax of Compound I; for half-life: read-out: t1/2 of Compound I (converted); for Tmax: median, read-out: Tmax of Compound I
Experimental: Six sequential cohorts of 8 health volunteers per cohort were randomized via a computer-generated randomization list in the ratio of 2:6. Two of the healthy volunteers (HV) received placebo and the remaining six received Compound I under fasted conditions at single ascending doses of 10, 25, 50, 150, or 300 mg, or multiple doses at 300 mg QD for 7 days (below, “Group A”).
as §3, with “25 mg,” for “25 mg”
For Groups A and B, dosing occurred between approximately 08:00 AM and 10:00 AM on each dosing day. Dosing was fasted for all subjects in Groups A and B. For fasted dosing, subjects observed a fasting period of approximately 10 hours prior to each dose and for an additional 4 hours post-dose.
Plasma samples were obtained up to 120 hours after dosing and the levels of Compound I and its Nucleoside metabolite were measured by using validated LC/MS/MS methodology. Plasma pharmacokinetic parameters were obtained by using non-compartmental analysis with parameters reported as mean±standard deviation (SD) except for Tmax where median (min-max) is shown.

[2] = 10 mg, 10 mg single dose, fasted
[3] = 25 mg, 25 mg single dose, fasted
[4] = 50 mg, 50 mg single dose, fasted
[5] = 150 mg, 150 mg single dose, fasted
[6] = 300 mg, 300 mg single dose, fasted

Q: Which results are given for `CC(C)OC(=O)[C@@H](C)N[P@@](=O)(OC[C@H]1O[C@@H](n2ccc(=O)[nH]c2=O)[C@](C)(Cl)[C@@H]1O)Oc1ccccc1` [Compound I]?
A: response in genotype 1a versus genotype 1b HCV infection (Genotype 1 HCV): similar; mean maximal viral load reduction (Genotype 1 HCV; 8 genotype 1 HCV-infected patients): 4.2 logs; antiviral activity across genotypes (HCV): potent pan-genotypic activity in a dose-dependent manner; AUC(0-inf) [1, 2]: 26 ± 7.6 ng·h/mL; Cmax [1, 2]: 17.4 ± 6.64 ng/mL; half-life [1, 2]: 0.87 ± 0.25 h; Tmax [1, 2]: 0.8 h; AUC(0-inf) [1, 3]: 51.2 ± 12.8 ng·h/mL; Cmax [1, 3]: 28.8 ± 13.4 ng/mL; half-life [1, 3]: 0.91 ± 0.26 h; Tmax [1, 3]: 1 h; AUC(0-inf) [1, 4]: 162 ng·h/mL; Cmax [1, 4]: 82.4 ± 61.6 ng/mL; half-life [1, 4]: 1.04 ± 0.34 h; Tmax [1, 4]: 1 h; AUC(0-inf) [1, 5]: 1110 ± 690 ng·h/mL; Cmax [1, 5]: 667 ± 324 ng/mL; half-life [1, 5]: 1.16 ± 0.24 h; Tmax [1, 5]: 1 h; AUC(0-inf) ([1]; 300 mg, 300 mg QD, D1, fasted): 2170 ± 660 ng·h/mL; Cmax ([1]; 300 mg, 300 mg QD, D1, fasted): 1290 ± 333 ng/mL; half-life ([1]; 300 mg, 300 mg QD, D1, fasted): 1.88 ± 0.72 h; Tmax ([1]; 300 mg, 300 mg QD, D1, fasted): 0.8 h; AUC(0-inf) ([1]; 300 mg, 300 mg QD, D7, fasted): 2200 ± 494 ng·h/mL; Cmax ([1]; 300 mg, 300 mg QD, D7, fasted): 1280 ± 238 ng/mL; half-life ([1]; 300 mg, 300 mg QD, D7, fasted): 2.76 ± 1.79 h; Tmax ([1]; 300 mg, 300 mg QD, D7, fasted): 0.5 h; AUC(0-inf) [1, 6]: 1680 ± 725 ng·h/mL; Cmax [1, 6]: 924 ± 441 ng/mL; half-life [1, 6]: 1.19 ± 0.34 h; Tmax [1, 6]: 0.5 h
